Test results taken from patent publication US8933024B2, “Azolopyridin-3-one derivatives as inhibitors of lipases and phospholipases” (Sanofi, priority 2010, dated 2015).

What follows are compounds tested against endothelial lipase (EL) (Homo sapiens (Human), UniProt Q9Y5X9) (assay: Test for inhibition of EL (assay for EL activity)). Details: phospholipase-specific Bodipy phosphocholine substrate; 37° C. for 90 minutes; enzyme from conditioned medium of recombinant cell lines (CHO, HEK293).
Format: biochemical
Text: Test for inhibition of EL:
EL is released as a secretory protein by recombinant cell lines (CHO, HEK293) in high concentration into cell culture medium (conditioned medium). This was used as an enzyme solution after concentration.
For characterization of the enzymatic activity of endothelial lipase and the effect of inhibitors, the phospholipase-specific substrate 1,2-bis(4,4-difluoro-5,7-dimethyl-4-bora-3a,4a-diaza-s-indacene-3-undecanoyl)-sn-glycero-3-phosphocholine (manufacturer: Molecular Probes) was used. Hydrolysis of the A1 ester bond of this phospholipid by the enzyme releases the fluorescent dye Bodipy, which can be detected by measuring the fluorescence after separation by thin-layer chromatography on an HPTLC plate (silica gel 60, Merck) or directly in the reaction vessel. To prepare the substrate solution, 100 μg of 1,2-bis(4,4-difluoro-5,7-dimethyl-4-bora-3a,4a-diaza-s-indacene-3-undecanoyl)-sn-glycero-3-phosphocholine (manufacturer: Molecular Probes) were dissolved in 100 μl of DMSO and taken up in 2.4 mg of tripalmitin (Sigma) in 393 μl of chloroform which contained 20 mg/ml DOP—choline (1,2-dioleoyl-sn-glycero-3-phosphocholine). 39.3 μl of this lipid mixture were transferred into a fresh reaction vessel and the solvent was evaporated off. The lipid mixture was dissolved by sonicating twice in 4 ml of 200 mM TRIS-HCl, 150 mM sodium chloride, pH=7.4. The subsequent enzyme reaction was effected at 37° C. for 90 minutes. For this purpose, 20 μl of the substrate solution were incubated with 2 μl of inhibitor of appropriate concentration (dissolved in 10% DMSO; 10% DMSO solution was used as a control) and 2 μl of enzyme solution (conditioned medium). Thereafter, 4 μl of the test mixture were applied to an HPTLC plate (silica gel 60, Merck) and the fluorescent dye released was separated for detection with an eluent (diethyl ether:petroleum:acetic acid [78:22:1]). After the eluent had been evaporated off, the plate was read in a fluorescence scanner.

Chain of endothelial lipase (EL) (Q9Y5X9 21-500): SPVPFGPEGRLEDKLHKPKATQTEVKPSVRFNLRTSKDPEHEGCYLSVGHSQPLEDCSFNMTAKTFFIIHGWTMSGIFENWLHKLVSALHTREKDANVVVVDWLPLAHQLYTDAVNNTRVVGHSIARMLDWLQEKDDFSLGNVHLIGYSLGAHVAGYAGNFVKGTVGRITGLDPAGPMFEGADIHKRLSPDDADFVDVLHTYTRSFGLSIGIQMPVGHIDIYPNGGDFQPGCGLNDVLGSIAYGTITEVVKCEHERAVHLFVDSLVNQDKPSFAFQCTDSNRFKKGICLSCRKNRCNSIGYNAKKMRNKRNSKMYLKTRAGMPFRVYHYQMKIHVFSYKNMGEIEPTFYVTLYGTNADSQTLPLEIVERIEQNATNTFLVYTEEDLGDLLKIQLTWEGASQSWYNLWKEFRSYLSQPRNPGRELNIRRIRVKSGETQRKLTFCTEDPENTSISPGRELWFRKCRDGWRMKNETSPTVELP

| Structure (SMILES) | IC50 [nM] |
| --- | --- |
| Cc1cc(C)c(CNC(=O)n2sc3ncccc3c2=O)c(C)c1 [Example 29, 3-Oxo-3H-isothiazolo[5,4-b]pyridine-2-carboxylic acid 2,4,6-trimethyl-benzylamide] | 4290 |
| COCCOc1ccc(CNC(=O)n2sc3ncccc3c2=O)cn1 [Example 114, 3-Oxo-3H-isothiazolo[5,4-b]pyridine-2-carboxylic acid [6-(2-methoxy-ethoxy)-pyridin-3-ylmethyl]-amide] | 216 |
| CC(NC(=O)n1sc2ncccc2c1=O)c1ccc(N2CCOCC2)cc1 (stereo not drawn) [Example 134, 3-Oxo-3H-isothiazolo[5,4-b]pyridine-2-carboxylic acid [1-(4-morpholin-4-yl-phenyl)-ethyl]-amide] | 391 |
| COCCOc1ccc([C@@H](C)NC(=O)n2sc3ncccc3c2=O)cc1OC [Example 161, 3-Oxo-3H-isothiazolo[5,4-b]pyridine-2-carboxylic acid {(R)-1-[3-methoxy-4-(2-methoxy-ethoxy)-phenyl]-ethyl}-amide] | 80 |
| CC(C)C(NC(=O)n1sc2ncccc2c1=O)c1ccc2c(c1)OCCCO2 (stereo not drawn) [Example 46, 3-Oxo-3H-isothiazolo[5,4-b]pyridine-2-carboxylic acid [1-(3,4-dihydro-2H-benzo[b][1,4]dioxepin-7-yl)-2-methyl-propyl]-amide] | 28 |
| COc1cc(CNC(=O)n2sc3ncccc3c2=O)cc(OC)c1OC [Example 3, 3-Oxo-3H-isothiazolo[5,4-b]pyridine-2-carboxylic acid 3,4,5-trimethoxy-benzylamide] | 926 |
| CC(C)Oc1ncccc1CNC(=O)n1sc2ncccc2c1=O [Example 116, 3-Oxo-3H-isothiazolo[5,4-b]pyridine-2-carboxylic acid (2-isopropoxy-pyridin-3-ylmethyl)-amide] | 1590 |
| CC(NC(=O)n1sc2ncccc2c1=O)c1ccc2c(c1)OCCO2 (stereo not drawn) [Example 5, 3-Oxo-3H-isothiazolo[5,4-b]pyridine-2-carboxylic acid [1-(2,3-dihydro-benzo[1,4]dioxin-6-yl)-ethyl]-amide] | 200 |
| COCCN1CCC(CNC(=O)n2sc3ncccc3c2=O)CC1 [Example 142, 3-Oxo-3H-isothiazolo[5,4-b]pyridine-2-carboxylic acid [1-(2-methoxy-ethyl)-piperidin-4-ylmethyl]-amide] | 517 |
| COc1ccc(C(C)NC(=O)n2sc3ncccc3c2=O)cc1OC (stereo not drawn) [Example 37, 3-Oxo-3H-isothiazolo[5,4-b]pyridine-2-carboxylic acid [1-(3,4-dimethoxy-phenyl)-ethyl]-amide] | 148 |
| COc1cc(C(C)NC(=O)n2sc3ncccc3c2=O)cc(OC)c1OC (stereo not drawn) [Example 4, 3-Oxo-3H-isothiazolo[5,4-b]pyridine-2-carboxylic acid [1-(3,4,5-trimeth-oxy-phenyl)-ethyl]-amide] | 40 |

Further lines, results first:

| IC50 [nM] | Structure (SMILES) |
| --- | --- |
| 1580 | Cc1ccccc1CNC(=O)n1sc2ncccc2c1=O [Example 156, 3-Oxo-3H-isothiazolo(5,4-b]pyridine-2-carboxylic acid 2-methyl-benzyl-amide] |
| 69 | O=C(NCc1ccccc1)n1sc2ncccc2c1=O [Example 18, 3-Oxo-3H-isothiazolo[5,4-b]pyridine-2-carboxylic acid benzylamide] |
| 230 | CCOc1ccc(CNC(=O)n2sc3ncccc3c2=O)cc1OC [Example 129, 3-Oxo-3H-isothiazolo[5,4-b]pyridine-2-carboxylic acid 4-ethoxy-3-meth-oxy-benzylamide] |
| 120 | Cc1cccc(C)c1CNC(=O)n1sc2ncccc2c1=O [Example 39, 3-Oxo-3H-isothiazolo[5,4-b]pyridine-2-carboxylic acid 2,6-dimethyl-benz-ylamide] |
| 116 | CSc1ccc(CNC(=O)n2sc3ncccc3c2=O)cc1 [Example 55, 3-Oxo-3H-isothiazolo[5,4-b]pyridine-2-carboxylic acid 4-methylsulfanyl-benzylamide] |
| 107 | COc1ccc(OC)c(CNC(=O)n2sc3ncccc3c2=O)c1 [Example 28, 3-Oxo-3H-isothiazolo[5,4-b]pyridine-2-carboxylic acid 2,5-dimethoxy-benzylamide] |
| 85 | CN(C)Cc1ccc(CNC(=O)n2sc3ncccc3c2=O)cc1 [Example 130, 3-Oxo-3H-isothiazolo[5,4-b]pyridine-2-carboxylic acid 4-dimethylamino-methyl-benzylamide] |
| 1380 | COc1cc(CNC(=O)n2sc3ncccc3c2=O)ccc1OCCN(C)C [Example 115, 3-Oxo-3H-isothiazolo[5,4-b]pyridine-2-carboxylic acid 4-(2-dimethylamino-ethoxy)-3-methoxy-benzylamide] |
| 182 | COc1cccc(CNC(=O)n2sc3ncccc3c2=O)c1 [Example 38, 3-Oxo-3H-isothiazolo[5,4-b]pyridine-2-carboxylic acid 3-methoxy-benzyl-amide] |
| 264 | CSc1cccc(CNC(=O)n2sc3ncccc3c2=O)c1 [Example 59, 3-Oxo-3H-isothiazolo[5,4-b]pyridine-2-carboxylic acid 3-methylsulfanyl-benzylamide] |
